Common to all, as to assay type: functional
The subject of test [1] is Plutella xylostella. Nature of the test: Larvicidal activity against second-instar larvae of Plutella xylostella (diamondback moth) infested raddish seedling assessed as mortality at 3.3 ppm sprayed 2 hr prior to infestation measured after 4 days.
The test system of test [2] is Spodoptera litura. Nature of the test: Larvicidal activity against third-instar larvae of Spodoptera litura infested in soybean seedling assessed as mortality at 2 ppm sprayed 6 days prior to infestation measured after 5 days.
The subject of test [3] is Adoxophyes orana. Briefly: Larvicidal activity against second-instar larvae of Adoxophyes orana infested soybean seedling assessed as mortality at 5 ppm measured after 7 days. Conditions: 168 h.
The subject of test [4] is Spodoptera litura. Briefly: Larvicidal activity against third-instar larvae of Spodoptera litura infested in soybean seedling assessed as mortality at 2 ppm sprayed 1 day prior to infestation measured after 5 days.
Test [5] relates to Adoxophyes orana. Nature of the test: Larvicidal activity against second-instar larvae of Adoxophyes orana infested soybean seedling assessed as mortality at 20 ppm measured after 7 days. As to conditions: 168 h.
Test [6] concerns Plutella xylostella. Nature of the test: Larvicidal activity against second-instar larvae of Plutella xylostella (diamondback moth) infested raddish seedling assessed as mortality at 50 ppm sprayed 2 hr prior to infestation measured after 4 days.

The mortality is the share of the test organisms that died. For the molecule `O=C(NC(=O)c1c(F)cccc1F)Nc1ccc(SC(F)(F)C(F)F)cc1`, the mortality at 3.3 ppm in the test with Plutella xylostella [1] was 100%. The mortality at 2 ppm with Spodoptera litura [2] came out at 20%; with Spodoptera litura [4], 55%. Moreover, the mortality at 5 ppm in the test on Adoxophyes orana [3] was found to be 5%.
In the case of `O=C(NC(=O)c1c(F)cccc1F)Nc1ccc(SC(F)(F)C(F)F)cc1F`, in the test on Plutella xylostella [1], the mortality at 3.3 ppm came out at 100%. Besides, the mortality at 2 ppm in the test with Spodoptera litura [2] and with Spodoptera litura [4] was 100% throughout. In addition, the mortality at 5 ppm with Adoxophyes orana [3] came to 80%.
For `O=C(NC(=O)c1c(F)cccc1F)Nc1ccc([S+]([O-])C(F)(F)C(F)F)cc1F` (centres undefined), in the test with Plutella xylostella [1], the mortality at 3.3 ppm came out at 100%. Besides, the mortality at 2 ppm in the test on Spodoptera litura [2] stood at 95%; with Spodoptera litura [4] it was 100%. Moreover, the mortality at 5 ppm in the test on Adoxophyes orana [3] was found to be 100%.
Turning to `O=C(NC(=O)c1c(F)cccc1F)Nc1ccc(S(=O)(=O)C(F)(F)C(F)F)cc1F`, the mortality at 3.3 ppm with Plutella xylostella [1] turned out to be 100%. Moreover, the mortality at 2 ppm in the test on Spodoptera litura [2] and in the test on Spodoptera litura [4] was 100% in each case. Also, the mortality at 5 ppm in the test with Adoxophyes orana [3] came to 100%.
For `O=C(NC(=O)c1c(F)cccc1F)Nc1ccc(SC(F)(F)C(F)F)cc1Cl`, in the test on Plutella xylostella [1], the mortality at 3.3 ppm is 100%. Moreover, the mortality at 2 ppm with Spodoptera litura [2] and in the test with Spodoptera litura [4] was 100% throughout. Further, in the test on Adoxophyes orana [3], the mortality at 5 ppm worked out at 100%.
`O=C(NC(=O)c1c(F)cccc1F)Nc1ccc(S(=O)(=O)C(F)(F)C(F)F)cc1Cl`: the mortality at 3.3 ppm in the test with Plutella xylostella [1] was 95%. Further, the mortality at 2 ppm in the test on Spodoptera litura [2] and with Spodoptera litura [4] was 100% each time. Also, in the test on Adoxophyes orana [3], the mortality at 5 ppm is 100%.
Regarding `O=C(NC(=O)c1c(F)cccc1F)Nc1ccc(SC(F)(F)C(F)F)cc1Br`, the mortality at 3.3 ppm in the test on Plutella xylostella [1] came to 100%. The mortality at 2 ppm in the test with Spodoptera litura [2] and with Spodoptera litura [4] was 100% in each case. In the test with Adoxophyes orana [3], the mortality at 5 ppm came out at 100%.
For `O=C(NC(=O)c1c(F)cccc1F)Nc1ccc(S(=O)(=O)C(F)(F)C(F)F)cc1Br`, the mortality at 3.3 ppm in the test on Plutella xylostella [1] was 65%. For the same molecule, the mortality at 2 ppm turned out to be 85% with Spodoptera litura [2] and 100% in the test on Spodoptera litura [4]. Further, the mortality at 5 ppm in the test with Adoxophyes orana [3] is 40%.
Take `Cc1cc(SC(F)(F)C(F)F)ccc1NC(=O)NC(=O)c1c(F)cccc1F`: the mortality at 3.3 ppm in the test on Plutella xylostella [1] was found to be 100%. Moreover, the mortality at 2 ppm in the test on Spodoptera litura [2] came to 100%; in the test on Spodoptera litura [4], 95%. Moreover, the mortality at 5 ppm in the test with Adoxophyes orana [3] worked out at 100%.
Take `Cc1cc([S+]([O-])C(F)(F)C(F)F)ccc1NC(=O)NC(=O)c1c(F)cccc1F` (centres undefined): in the test on Plutella xylostella [1], the mortality at 3.3 ppm was determined as 100%. Moreover, the mortality at 2 ppm with Spodoptera litura [2] and in the test with Spodoptera litura [4] was 100% throughout. The mortality at 5 ppm with Adoxophyes orana [3] came to 100%.
Regarding `Cc1cc(S(=O)(=O)C(F)(F)C(F)F)ccc1NC(=O)NC(=O)c1c(F)cccc1F`, the mortality at 3.3 ppm with Plutella xylostella [1] came out at 100%. The mortality at 2 ppm in the test with Spodoptera litura [2] and in the test with Spodoptera litura [4] was 100% each time. The mortality at 5 ppm in the test with Adoxophyes orana [3] came to 100%.
As to `O=C(NC(=O)c1c(F)cccc1F)Nc1ccc(SC(F)(F)C(F)F)c(Cl)c1`, in the test on Plutella xylostella [1], the mortality at 3.3 ppm was found to be 100%. Besides, the mortality at 2 ppm in the test on Spodoptera litura [2] and with Spodoptera litura [4] was 100% in each case. Further, the mortality at 20 ppm in the test on Adoxophyes orana [5] came out at 65%.
As for `O=C(NC(=O)c1c(F)cccc1F)Nc1ccc(S(=O)(=O)C(F)(F)C(F)F)c(Cl)c1`, the mortality at 3.3 ppm in the test on Plutella xylostella [1] worked out at 80%. In addition, the mortality at 2 ppm was determined as 35% in the test on Spodoptera litura [2] and 60% in the test with Spodoptera litura [4]. In addition, the mortality at 5 ppm in the test with Adoxophyes orana [3] was 100%.
Taken in the same sequence, the figures for `Cc1cc(NC(=O)NC(=O)c2c(F)cccc2F)ccc1SC(F)(F)C(F)F` were 100%, 100%, 100% and 0%.
In the same order, the values of `Cc1cc(NC(=O)NC(=O)c2c(F)cccc2F)ccc1S(=O)(=O)C(F)(F)C(F)F` are 100%, 60%, 70% and 25%.
Take `O=C(NC(=O)c1c(F)cccc1F)Nc1ccc(Cl)cc1` [DIFLUBENZURON]: the values for the mortality at 2 ppm in the test with Spodoptera litura [2] and with Spodoptera litura [4] were 15% and 20%, respectively. Moreover, in the test with Adoxophyes orana [5], the mortality at 20 ppm is 20%. In addition, in the test with Plutella xylostella [6], the mortality at 50 ppm is 20%.

The values above are taken from ChEMBL document CHEMBL3045262, “Synthesis and Insecticidal Activity of Novel 1-Benzoyl-3-phenylurea Derivatives with Polyfluoroethylsulfenyl, -sulfonyl, and-sulfinyl Substituents” (1992).
